Where a name gives a salt, the structure may show the parent alone.
assay: in vitro; conditions: rat, gh3-tre-luc cells, AC50 (uM) modified / 1000

Row | Structure (SMILES) | CC50 at 24 h
1 | CC(C)CCCCCCOC(=O)c1ccccc1C(=O)OCCCCCCC(C)C [Diisononyl phthalate] | > 90 µM
2 | C=CC(O)CCCCC (stereo not shown) [1-Octen-3-ol] | > 90 µM
3 | C(=C\c1ccccc1)/c1ccccc1 [trans-Stilbene] | > 100 µM
4 | NS(=O)(=O)c1cc2c(cc1Cl)N=C(CSCc1ccccc1)NS2(=O)=O [Benzthiazide] | > 20 µM
5 | O=[N+]([O-])c1ccccc1-c1ccccc1 [2-Nitro-1,1'-biphenyl] | > 90 µM
6 | C=C(C)C(=O)OCCCCCCCCCC [Decyl methacrylate] | > 90 µM
7 | CC(C)(C)C(=O)CCc1ccc(Cl)cc1 [1-(4-Chlorophenyl)-4,4-dimethyl-pentan-3-one] | > 90 µM
8 | c1ccc2cc3c4ccccc4c4ccccc4c3cc2c1 [Dibenz[a,c]anthracene] | > 90 µM
9 | COc1ccc(Cc2nccc3cc(OC)c(OC)cc23)cc1OC [Papaverine hydrochloride] | > 20 µM
10 | CNc1ccc([N+](=O)[O-])cc1 [N-Methyl-4-nitroaniline] | 54.8 µM
11 | COC(=O)C1CC(=O)C(C(=O)OC)CC1=O (stereo not shown) [Dimethyl succinylsuccinate] | > 5 µM
12 | CC(=O)Oc1cccc(O)c1 [Resorcinol monoacetate] | > 50 µM
13 | COc1ccc(C[C@H](N)C(=O)N[C@H]2[C@@H](O)[C@H](n3cnc4c(N(C)C)ncnc43)O[C@@H]2CO)cc1 [Puromycin dihydrochloride] | 11.2 µM
14 | CCN(CC)CC(=O)Nc1c(C)cc(C)cc1C [Trimecaine monohydrochloride] | > 50 µM
15 | C=C(C)C(=O)OCCCCCCCCCCCC [Dodecyl 2-methylacrylate] | > 90 µM
16 | O=C(O)Cc1ccc(OCCNC[C@H](O)c2ccccc2)cc1 [ZD 2079] | > 50 µM
17 | CCNc1nc(NC(C)C)nc(SC)n1 [Ametryn] | > 90 µM
18 | CNC(C)CCC=C(C)C (stereo not shown) [Isometheptene hydrochloride] | > 50 µM
19 | C=C(C)C1CC=C(C)C(=O)C1 (racemic) [dl-Carvone] | > 90 µM
20 | N#Cc1cscn1 [4-Thiazolecarbonitrile] | > 90 µM

Row | Structure (SMILES) | CC50 at 24 h
21 | FC(F)(F)c1ccc(Cl)c(Cl)c1 [1,2-Dichloro-4-(trifluoromethyl)benzene] | > 90 µM
22 | O=CN(CCO)CCO [N,N-Bis(2-hydroxyethyl)formamide] | > 90 µM
23 | COS(=O)(=O)C(F)(F)F [Methyl trifluoromethanesulfonate] | > 100 µM
24 | O=P(O)(O)C(Cl)(Cl)P(=O)(O)O [Clodronic acid, disodium salt] | > 50 µM
25 | CN(C)c1ccc(N=NS(=O)(=O)O)cc1 [Fenaminosulf] | > 90 µM
26 | CCC(=O)O[C@H]1[C@@H](N2CCCCC2)C[C@H]2[C@@H]3CC[C@H]4C[C@H](OC(C)=O)[C@@H](N5CCCCC5)C[C@]4(C)[C@H]3CC[C@@]21C [(2beta,3alpha,5alpha,16beta,17beta)-3-Acetoxy-2,16-di(1-piperidinyl)androstan-17-yl propionate] | > 50 µM
27 | CCN(CC)CCOC(=O)C(O)(c1ccccc1)c1ccccc1 [Benactyzine] | > 50 µM
28 | CSc1ccc(/C=C2/C(C)=C(CC(=O)O)c3cc(F)ccc32)cc1 [Sulindac sulfide] | > 50 µM
29 | Cc1ccc(C)c(O)c1C [2,3,6-Trimethylphenol] | > 90 µM
30 | Nc1cc2c3c(c1)C(c1ccccc1)=N[C@@H](NC(=O)c1cccnc1)C(=O)N3CC2 [CI-1044] | > 90 µM
31 | COc1ccc(C)cc1N [2-Methoxy-5-methylaniline] | > 90 µM
32 | Cc1cc(C(=O)NNCc2ccccc2)no1 [Isocarboxazid] | > 20 µM
33 | COc1cc(NS(=O)(=O)c2ccc(N)cc2)ncn1 [Sulfamonomethoxine] | > 20 µM
34 | CCC/C=C/C=O [(2E)-2-Hexenal] | > 90 µM
35 | C[N+]12CCC(CC1)C(OC(=O)C(O)(c1ccccc1)c1ccccc1)C2 (stereo not shown) [Clidinium bromide] | > 20 µM
36 | C=C(C)C1CC=C(C)[C@@H](O)C1 (stereo partly shown) [Carveol] | > 90 µM
37 | Cc1ccc(C(=O)O)cc1 [4-Methylbenzoic acid] | > 90 µM
38 | CC1=CCC(O)(C(C)C)CC1 (stereo not shown) [4-Methyl-1-(propan-2-yl)cyclohex-3-en-1-ol] | > 90 µM
39 | CC(C)CCC[C@@H](C)[C@H]1CC[C@H]2[C@@H]3CC[C@@H]4C[C@H](O)CC[C@]4(C)[C@H]3CC[C@]12C [(3alpha,5beta)-Cholestan-3-ol] | > 50 µM
40 | COC(=O)C(C)Oc1ccc(Oc2ncc(C(F)(F)F)cc2Cl)cc1 (stereo not shown) [Haloxyfop-methyl] | > 90 µM

Row | Structure (SMILES) | CC50 at 24 h
41 | Cc1ccccc1Br [2-Bromotoluene] | > 90 µM
42 | Nc1c(Cl)cc(Cl)cc1[N+](=O)[O-] [2,4-Dichloro-6-nitroaniline] | > 90 µM
43 | Cc1ccccc1S(N)(=O)=O [o-Toluenesulfonamide] | > 90 µM
44 | CCCCCCCCCCCC [Dodecane] | > 90 µM
45 | O=C1OC(CN2CCOCC2)CN1/N=C/c1ccc([N+](=O)[O-])o1 (stereo not shown) [Furaltadone hydrochloride] | > 20 µM
46 | S=P(N1CC1)(N1CC1)N1CC1 [Thiotepa] | > 100 µM
47 | N=C(N)NN=C1C=CC(=NNC(N)=S)C=C1 [Ambazone] | 23 µM
48 | CC(Cl)=CCCl [1,3-Dichloro-2-butene] | > 90 µM
49 | O=C1CCC(c2ccc(-n3ccnc3)cc2)=NN1 [Imazodan] | > 50 µM
50 | O=C(O)CNC(=O)c1ccccc1I [2-Iodohippuric acid] | > 50 µM
51 | Nc1nc(/C(=C/CC(=O)O)C(=O)N[C@@H]2C(=O)N3C(C(=O)O)=CCS[C@H]23)cs1 [Ceftibuten] | > 50 µM
52 | CCO[Si](CCC1CCC2OC2C1)(OCC)OCC (stereo not shown) [Triethoxy[2-(7-oxabicyclo[4.1.0]hept-3-yl)ethyl]silane] | > 90 µM
53 | O=C(O)c1ccccn1 [Picolinic acid] | > 50 µM
54 | N=c1nc(N2CCCCC2)cc(N)n1O [Minoxidil] | > 50 µM
55 | CCCC(=O)OCCC(C)CCC=C(C)C (stereo not shown) [Citronellyl butyrate] | > 90 µM
56 | CCc1ccc2c(c1)N(CC(C)CN(C)C)c1ccccc1S2 (stereo not shown) [Etymemazine hydrochloride] | 9.18 µM
57 | C=CCSSCCC [Allyl propyl disulfide] | > 90 µM
58 | NC(=O)NC(=O)Cc1ccccc1 [Phenacemide] | > 50 µM

same assay, conditions: rat, gh3-tre-luc cells, AC50 (uM) modified / 1000, Tox21_110001=Tox21_111832; viability, 1 nM T3 present, 24 h

Row | Structure (SMILES) | CC50 at 24 h
59 | c1ccc(C2(N3CCCC3)CCCCC2)cc1 [Rolicyclidine] | 14.9 µM

same assay, conditions: rat, gh3-tre-luc cells, AC50 (uM) modified / 1000, Tox21_110001=Tox21_112042; viability, 1 nM T3 present, 24 h

Row | Structure (SMILES) | CC50 at 24 h
60 | CC(=O)[C@H]1CC[C@H]2[C@@H]3CC[C@@H]4C[C@H](O)CC[C@]4(C)[C@H]3CC[C@]12C [Eltanolone] | > 50 µM

same assay, conditions: rat, gh3-tre-luc cells, AC50 (uM) modified / 1000, Tox21_110001=Tox21_112851; viability, 1 nM T3 present, 24 h

Row | Structure (SMILES) | CC50 at 24 h
61 | COc1ccc(OC)c(C[C@H](C)N)c1 [(2S)-1-(2,5-Dimethoxyphenyl)propan-2-amine hydrogen chloride (1:1)] | > 100 µM

same assay, conditions: rat, gh3-tre-luc cells, AC50 (uM) modified / 1000, Tox21_110001=Tox21_113156; viability, 1 nM T3 present, 24 h

Row | Structure (SMILES) | CC50 at 24 h
62 | S=C(SSC(=S)N1CCCCC1)N1CCCCC1 [Dicyclopentamethylenethiuram disulfide] | 0.373 µM

same assay, conditions: rat, gh3-tre-luc cells, AC50 (uM) modified / 1000, Tox21_110001=Tox21_200675; viability, 1 nM T3 present, 24 h

Row | Structure (SMILES) | CC50 at 24 h
63 | Oc1ccc(Cl)c(Cl)c1 [3,4-Dichlorophenol] | > 90 µM

same assay, conditions: rat, gh3-tre-luc cells, AC50 (uM) modified / 1000, Tox21_110001=Tox21_201090; viability, 1 nM T3 present, 24 h

Row | Structure (SMILES) | CC50 at 24 h
64 | CC(=O)C(Cl)Cl [1,1-Dichloropropanone] | > 90 µM

same assay, conditions: rat, gh3-tre-luc cells, AC50 (uM) modified / 1000, Tox21_110001=Tox21_201619; viability, 1 nM T3 present, 24 h

Row | Structure (SMILES) | CC50 at 24 h
65 | CCNc1nc(Cl)nc(NC(C)(C)C#N)n1 [Cyanazine] | > 90 µM

same assay, conditions: rat, gh3-tre-luc cells, AC50 (uM) modified / 1000, Tox21_110001=Tox21_201715; viability, 1 nM T3 present, 24 h

Row | Structure (SMILES) | CC50 at 24 h
66 | CCCCCCCCCl [1-Chlorooctane] | > 90 µM

same assay, conditions: rat, gh3-tre-luc cells, AC50 (uM) modified / 1000, Tox21_110001=Tox21_302008; viability, 1 nM T3 present, 24 h

Row | Structure (SMILES) | CC50 at 24 h
67 | C#CCOC(=O)/C=C(C)/C=C/CC(C)CCCC(C)C (stereo not shown) [Kinoprene] | > 90 µM

Source: paper PMC6792352, “Limited Chemical Structural Diversity Found to Modulate Thyroid Hormone Receptor in the Tox21 Chemical Library” (Environmental Health Perspectives, 2019)
